In patent US10383859B2, “Benzo[d]thiazole derivative or salt thereof, and pharmaceutical composition including same” (Yuhan Corporation, priority 2016, dated 2019) one finds IC50 data, which are given here for 23 compounds.

Each structure is given as a SMILES string. pIC50: −log10 of the molar value.

The subject of the test is A549 cells. Description: Cell migration assay (24-well transwell, laminin). Conditions: Homo sapiens, A549, 6 h, laminin 10 μg/mL in lower well, test compounds 0.39˜100 μM, migrated cells counted, read-out: Inhibitory activity against cell migration. Format: cell-based, human. The procedure, abridged:
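Serum-free RPMI1640 transwell (8.0 μm pore) with laminin (10 μg/mL) in lower well; A549 cells (1×10^6 cells/mL) and compounds (0.39–100 μM) in both chambers, 6 h at 37 °C. Hematoxylin-stained cells on membrane underside counted at three fields (×20); IC50 by non-linear regression.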
Turning to `COc1ccc(CCN(c2nc3cc(F)c(F)c(F)c3s2)C(C)c2ccc(C(=O)O)cc2)cc1` (centres unmarked) [Example 101, 4-(1-{[2-(4-methoxyphenyl)ethyl](5,6,7-trifluorobenzo[d]thiazol-2-yl)amino}ethyl)benzoic acid], the pIC50 is less than 5.00.
Turning to `COc1ccc(CCN(c2nc3ccc(Cl)c(F)c3s2)C(C)c2ccc(C(=O)O)cc2)cc1` (centres unmarked) [Example 102, 4-(1-{(6-chloro-7-fluorobenzo[d]thiazol-2-yl)[2-(4-methoxyphenyl)ethyl]amino}ethyl)benzoic acid], the pIC50 is less than 5.00.
`COc1ccc(CCN(c2nc3cc(Br)ccc3s2)C(C)c2ccc(C(=O)O)cc2)cc1` (centres unmarked) [Example 103, 4-(1-{(5-bromo-benzo[d]thiazol-2-yl)[2-(4-methoxyphenyl)ethyl]amino}ethyl)benzoic acid]: the pIC50 is less than 5.00.
The result for `COc1ccc(CCN(c2nc3ccc(F)c(F)c3s2)C(C)c2ccc(C(=O)O)cc2)cc1` (centres unmarked) [Example 104, 4-(1-{(6,7-difluorobenzo[d]thiazol-2-yl)[2-(4-methoxyphenyl)ethyl]amino}ethyl)benzoic acid] reads less than 5.00; that for `COc1ccc(CCN(c2nc3ccc(C)c(F)c3s2)C(C)c2ccc(C(=O)O)cc2)cc1` (centres unmarked) [Example 105, 4-(1-{(7-fluoro-6-methyl-benzo[d]thiazol-2-yl)[2-(4-methoxyphenyl)ethyl]amino}ethyl)benzoic acid], less than 5.00.
Turning to `COc1ccc(CCN(c2nc3cccc(C(F)(F)F)c3s2)C(C)c2ccc(C(=O)O)cc2)cc1` (centres unmarked) [Example 106, 4-(1-{[2-(4-methoxyphenyl)ethyl][7-(trifluoromethyl)-benzo[d]thiazol-2-yl]amino}ethyl)benzoic acid], the pIC50 was less than 5.00.
As to `COc1ccc(CCN(c2nc3cc(Cl)ccc3s2)C(C)c2ccc(C(=O)O)cc2)cc1` (centres unmarked) [Example 107, 4-(1-{(5-chloro-benzo[d]thiazol-2-yl)[2-(4-methoxyphenyl)ethyl]amino}ethyl)benzoic acid], the pIC50 was less than 5.00.
The result for `COc1ccc(CCN(c2nc3ccc(Cl)cc3s2)C(C)c2ccc(C(=O)O)cc2)cc1` (centres unmarked) [Example 108, 4-(1-{(6-chloro-benzo[d]thiazol-2-yl)[2-(4-methoxyphenyl)ethyl]amino}ethyl)benzoic acid] reads less than 5.00; that for `COc1ccc(CCN(c2nc3cccc(Cl)c3s2)C(C)c2ccc(C(=O)O)cc2)cc1` (centres unmarked) [Example 109, 4-(1-{(7-chloro-benzo[d]thiazol-2-yl)[2-(4-methoxyphenyl)ethyl]amino}ethyl)benzoic acid], more than 6.00.
For the compound `COc1ccc(CCN(c2nc3cccc(C)c3s2)C(C)c2ccc(C(=O)O)cc2)cc1` (centres unmarked) [Example 110, 4-(1-{[2-(4-methoxyphenyl)ethyl](7-methyl-benzo[d]thiazol-2-yl)amino}ethyl)benzoic acid], the pIC50 was less than 5.00.
Consider `COc1ccc(CCN(c2nc3ccc(C)cc3s2)C(C)c2ccc(C(=O)O)cc2)cc1` (centres unmarked) [Example 111, 4-(1-{[2-(4-methoxyphenyl)ethyl](6-methyl-benzo[d]thiazol-2-yl)amino}ethyl)benzoic acid], for which the pIC50 was less than 5.00.
For the compound `COc1ccc(CCN(c2nc3cc(C)ccc3s2)C(C)c2ccc(C(=O)O)cc2)cc1` (centres unmarked) [Example 112, 4-(1-{[2-(4-methoxyphenyl)ethyl](5-methyl-benzo[d]thiazol-2-yl)amino}ethyl)benzoic acid], the pIC50 was less than 5.00.
`COc1ccc(CCN(c2nc3cc(F)ccc3s2)C(C)c2ccc(C(=O)O)cc2)cc1` (centres unmarked) [Example 113, 4-(1-{(5-fluorobenzo[d]thiazol-2-yl)[2-(4-methoxyphenyl)ethyl]amino}ethyl)benzoic acid]: the pIC50 is less than 5.00.
As for `COc1ccc(CCN(c2nc3c(F)cc(F)cc3s2)C(C)c2ccc(C(=O)O)cc2)cc1` (centres unmarked) [Example 114, 4-(1-{(4,6-difluorobenzo[d]thiazol-2-yl)[2-(4-methoxyphenyl)ethyl]amino}ethyl)benzoic acid], the pIC50 is less than 5.00.
The result for `COc1ccc(CCN(Cc2ccc(C(=O)O)cc2)c2nc3ccc(Br)cc3s2)cc1` [Example 115, 4-({(6-bromo-benzo[d]thiazol-2-yl)[2-(4-methoxyphenyl)ethyl]amino}methyl)benzoic acid] reads less than 5.00; that for `COc1ccc(CCN(c2nc3ccc(Br)cc3s2)C(C)c2ccc(C(=O)O)cc2)cc1` (centres unmarked) [Example 116, 4-(1-{(6-bromo-benzo[d]thiazol-2-yl)[2-(4-methoxyphenyl)ethyl]amino}ethyl)benzoic acid], less than 5.00.
Take `COc1ccc(CCN(Cc2ccc(C(=O)O)cc2)c2nc3ccc(C(=O)O)cc3s2)cc1` [Example 117, 2-{(4-carboxybenzyl)[2-(4-methoxyphenyl)ethyl]amino}benzo[d]thiazole-6-carboxylic acid]: the pIC50 is less than 5.00.
Consider `COc1ccc(CCN(Cc2ccc(C(=O)O)cc2)c2nc3cccc(C(=O)O)c3s2)cc1` [Example 118, 2-{(4-carboxybenzyl)[2-(4-methoxyphenyl)ethyl]amino}benzo[d]thiazole-7-carboxylic acid], for which the pIC50 is less than 5.00.
Consider `COc1ccc(CCN(Cc2ccc(C(=O)O)cc2)c2nc3ccc(C(F)(F)F)cc3s2)cc1` [Example 119, 4-({[2-(4-methoxyphenyl)ethyl][6-(trifluoromethyl)benzo[d]thiazol-2-yl]amino}methyl)benzoic acid], for which the pIC50 is less than 5.00.
As for `COc1ccc(CCN(Cc2ccc(C(=O)O)cc2)c2nc3cc(C(F)(F)F)ccc3s2)cc1` [Example 120, 4-({[2-(4-methoxyphenyl)ethyl][5-(trifluoromethyl)benzo[d]thiazol-2-yl]amino}methyl)benzoic acid], the pIC50 is more than 6.00.
The result for `COc1ccc(CCN(Cc2ccc(C(=O)O)cc2)c2nc3ccc(C(F)(F)F)c(F)c3s2)cc1` [Example 121, 4-({[7-fluoro-6-(trifluoromethyl)benzo[d]thiazol-2-yl][2-(4-methoxyphenyl)ethyl]amino}methyl)benzoic acid] reads less than 5.00; that for `COc1ccc(CCN(c2nc3cc(F)cc(F)c3s2)C(C)c2ccc(C(=O)O)cc2)cc1F` (centres unmarked) [Example 122, 4-(1-{(5,7-difluorobenzo[d]thiazol-2-yl)[2-(3-fluoro-4-methoxyphenyl)ethyl]amino}ethyl)benzoic acid], more than 6.00.
Consider `COc1ccc(CCN(c2nc3cc(C(F)(F)F)ccc3s2)C(C)c2ccc(C(=O)O)cc2)cc1` (centres unmarked) [Example 124, 4-(1-{[2-(4-methoxyphenyl)ethyl][5-(trifluoromethyl)benzo[d]thiazol-2-yl]amino}ethyl)benzoic acid], for which the pIC50 is more than 6.00.
